For data set [1], the target named is T1, Human plasma kallikrein (Homo sapiens (Human), UniProt P03952). Briefly: Determination of the IC50 for plasma kallikrein. It is filed as biochemical. Particulars: 25° C., substrate H-DPro-Phe-Arg-AFC; read-out: IC50 (human PKal). As to the method: Human plasma kallikrein (Protogen) was incubated at 25° C. with the fluorogenic substrate H-DPro-Phe-Arg-AFC and various concentrations of the test compound. Residual enzyme activity (initial rate of reaction) was determined by measuring the change in […] at 410 nm and the IC50 value for the test compound was determined.

Data set [2] can be described thus: Predicted plasma clearance (Clp), well-stirred model, human. The format is in vitro ADME. Particulars: percentage of hepatic blood flow. Here is the method:
(§1) The predicted plasma clearance (Clp) is calculated using the well-stirred model (Rowland M, Benet L Z, and Graham G G. Clearance concepts in pharmacokinetics. J Pharmacokinet Biopharm. (1973) 1:123-136.), one of several models that can be used to extrapolate the in vitro data. The model assumes instantaneous and complete mixing of drug within the liver and is a function of intrinsic clearance, hepatic blood flow and free fraction of drug in the blood. The predicted plasma clearance in mL/min/kg is presented as a percentage of hepatic blood flow (LBF).

Data set [3] can be described thus: Intrinsic clearance in rat liver microsomes. It is filed as in vitro ADME. Particulars: rat liver microsomes 0.5 mg/mL, 5 μM test compound, 37° C.; read-out: rat liver microsome (Clint μL/min/mg protein). Here is the method:
(§2) Rat or human liver microsomes (0.5 mg/mL; Corning) were incubated with 5 μM test compound at 37° C. on a shaking platform (150 rpm). Samples were taken at 0, 6, 12, 18, 24 and 60 min and test compound concentrations were determined by LCMS against a calibration curve.
In general terms: Liver microsomes are a subcellular fraction often used to study metabolism.

A further data set has as its target Human KLK1 (Homo sapiens (Human), UniProt P06870). Briefly: Determination of the IC50 for KLK1. The format is biochemical. Particulars: 25° C., substrate H-DVal-Leu-Arg-AFC. As to the method: Human KLK1 (Callbiochem) was incubated at 25° C. with the fluorogenic substrate H-DVal-Leu-Arg-AFC and various concentrations of the test compound. Residual enzyme activity (initial rate of reaction) was determined by measuring the change in […] at 410 nm and the IC50 value for the test compound was determined.

Data set [4] in a line: Plasma protein binding (PPB), rapid equilibrium dialysis, human plasma. The format is in vitro ADME. Particulars: 5 μM test compound, dialysis 5 hrs at 37° C. As to the method: The fraction unbound in plasma was determined using ThermoScientific™ Pierce™ Rapid Equilibrium Dialysis Technology (Single-Use plate with inserts, 8K MWCO). […] Reference samples from the non-dialysed plasma were taken before the incubation to enable an assessment of recovery. Test compound concentrations were determined in plasma and buffer compartments by LCMS against a calibration curve. […] Results are presented as percent plasma protein bound (% PPB).
Background: Equilibrium dialysis compares concentrations on both sides of a semipermeable membrane.

The target in data set [5] is T1, Human plasma kallikrein. Briefly: Determination of the Ki for plasma kallikrein (mixed-model inhibition). The format is biochemical. As to the method:
Plasma kallikrein inhibitory activity in vitro was determined using standard published methods (e.g. Johansen et al., Int. J. Tiss. Reac. 1986, 8, 185; Shori et al., Biochem. Pharmacol., 1992, 43, 1209; Sturzebecher et al., Biol. Chem. Hoppe-Seyler, 1992, 373, 1025). […]. Residual enzyme activity (initial rate of reaction) was determined by measuring the change in fluorescence at 410 nm. The Ki value for the test compound was determined using the mixed-model inhibition equation (based on Equation 3.2 in: RA Copeland, Evaluation of Enzyme Inhibitors in Drug Discovery, Wiley 2005) in GraphPad Prism. The mixed model equation includes competitive, uncompetitive and noncompetitive inhibition as special cases and the parameter of Alpha to indicate mechanism of inhibition.

The target in the next data set is Human FXIa (Homo sapiens (Human), UniProt P03951). Briefly: Determination of the % inhibition / IC50 for FXIa. It is filed as biochemical. Particulars: 25° C., substrate Z-Gly-Pro-Arg-AFC. As to the method: FXIa inhibitory activity in vitro was determined using standard published methods (see e.g. Johansen et al., Int. J. Tiss. Reac. 1986, 8, 185; Shori et al., Biochem. Pharmacol., 1992, 43, 1209; Sturzebecher et al., Biol. Chem. Hoppe-Seyler, 1992, 373, 1025). […]

The nature of data set [6]: Plasma protein binding (PPB), rapid equilibrium dialysis, rat plasma. Particulars: 5 μM test compound, dialysis 5 hrs at 37° C. It is filed as in vitro ADME. As to the method: The fraction unbound in plasma was determined using ThermoScientific™ Pierce™ Rapid Equilibrium Dialysis Technology (Single-Use plate with inserts, 8K MWCO). 5 μM test compound was spiked into human or rat plasma (300 μL) and dialysed against 146.5 mM phosphate buffer (500 μL) for 5 hrs at 37° C., shaking at 1200 rpm. Reference samples from the non-dialysed plasma were taken before the incubation to enable an assessment of recovery. Test compound concentrations were determined in plasma and buffer compartments by LCMS against a calibration curve. The fraction unbound in plasma was determined using standard methodology (Waters N J et al (2008) J Pharm Sci 97(10); 4586-95). Results are presented as percent plasma protein bound (% PPB).

Data set [7] is described as follows: Intrinsic clearance in human liver microsomes. Particulars: human liver microsomes 0.5 mg/mL, 5 μM test compound, 37° C.; read-out: Human liver microsome (Clint μL/min/mg protein). It is filed as in vitro ADME. Here is the method: as §2
For a further data set, the target named is Human Factor XIIa (Homo sapiens (Human), UniProt P00748). The data set can be described thus: Factor XIIa inhibitory activity in vitro. It is filed as biochemical. Particulars: 25° C., substrate H-DPro-Phe-Arg-AFC; read-out: IC50 (human FXIIa). Here is the method:
Human Factor XIIa (Enzyme Research Laboratories) was incubated at 25° C. with the fluorogenic substrate H-DPro-Phe-Arg-AFC and various concentrations of the test compound. Residual enzyme activity (initial rate of reaction) was determined by measuring the change in […] at 410 nm and the IC50 value for the test compound was determined.

Data set [8] can be described thus: In vitro permeability, Caco-2 model for oral absorption. It is filed as in vitro ADME. Particulars: human, apical to basolateral, 50 μM test compound, 37° C. As to the method: In vitro permeability was determined using the Caco-2 model for oral absorption. The methodology was adapted from standard published methods (Wang Z, Hop C. E., Leung K. H. and Pang J. (2000) J Mass Spectrom 35(1); 71-76). The Caco-2 monolayers were established in a Biocoat™ HTS fibrillar collagen 24 well multiwell insert system (1.0 μm, PET membrane, Corning 354803) in which 200,000 cells were seeded into each insert and maintained over 3 days before being utilised in the permeability assay. For the assay, 50 μM test compound is added to the apical side of the inserts and incubated for 1 hour at 37° C. on a shaking platform (120 rpm). Apical to basolateral transport was determined by measuring the test article in both compartments by LCMS following the 1 hour incubation. The integrity of the Caco-2 monolayers was confirmed by two methods, (i) comparison of pre- and post-experiment transepithelial electrical resistance (TEER) and, (ii) assessment of Lucifer Yellow flux.
Background: Caco-2 cells form a polarised layer with tight junctions and transporters.

Data set [9] in a line: Predicted plasma clearance (Clp), well-stirred model, rat. It is filed as in vitro ADME. Particulars: percentage of hepatic blood flow. Here is the method:
as §1

Structures are written as SMILES. A value given as a limit tells only on which side of the number the result lay.

Sequence of Human KLK1 (P06870 25-262): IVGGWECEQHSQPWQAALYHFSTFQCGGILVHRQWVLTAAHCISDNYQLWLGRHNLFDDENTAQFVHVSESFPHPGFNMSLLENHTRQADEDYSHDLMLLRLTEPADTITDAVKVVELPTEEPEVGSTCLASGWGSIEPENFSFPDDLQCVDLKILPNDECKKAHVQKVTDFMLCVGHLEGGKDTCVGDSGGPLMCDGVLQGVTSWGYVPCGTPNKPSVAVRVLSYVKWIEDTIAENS
T1 sequence (P03952 391-638): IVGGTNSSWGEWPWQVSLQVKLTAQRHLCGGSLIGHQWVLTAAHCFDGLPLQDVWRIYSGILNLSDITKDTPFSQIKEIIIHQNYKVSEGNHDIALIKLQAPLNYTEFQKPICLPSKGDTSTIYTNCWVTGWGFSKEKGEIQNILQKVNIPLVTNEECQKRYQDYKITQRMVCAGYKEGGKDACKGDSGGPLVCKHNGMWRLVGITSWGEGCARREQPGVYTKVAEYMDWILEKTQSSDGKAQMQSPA
T1 sequence (P03952 20-390): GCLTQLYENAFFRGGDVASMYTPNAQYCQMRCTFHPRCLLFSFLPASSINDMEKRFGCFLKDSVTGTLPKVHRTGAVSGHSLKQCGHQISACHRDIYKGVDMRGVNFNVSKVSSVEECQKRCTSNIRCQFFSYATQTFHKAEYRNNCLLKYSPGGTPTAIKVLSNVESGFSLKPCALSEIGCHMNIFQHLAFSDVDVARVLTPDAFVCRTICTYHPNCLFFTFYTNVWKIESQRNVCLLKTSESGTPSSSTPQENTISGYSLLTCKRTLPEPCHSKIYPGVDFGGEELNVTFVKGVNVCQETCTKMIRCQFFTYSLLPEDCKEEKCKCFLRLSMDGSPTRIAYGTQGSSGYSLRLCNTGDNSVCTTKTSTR
Sequence of Human FXIa (P03951 388-625): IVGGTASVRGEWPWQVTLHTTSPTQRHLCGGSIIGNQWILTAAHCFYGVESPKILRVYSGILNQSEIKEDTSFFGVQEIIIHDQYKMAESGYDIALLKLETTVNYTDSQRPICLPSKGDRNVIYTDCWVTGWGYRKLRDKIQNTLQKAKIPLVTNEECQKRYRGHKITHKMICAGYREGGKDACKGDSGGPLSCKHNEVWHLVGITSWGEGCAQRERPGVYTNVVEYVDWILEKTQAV
Sequence of Human FXIa (P03951 19-387): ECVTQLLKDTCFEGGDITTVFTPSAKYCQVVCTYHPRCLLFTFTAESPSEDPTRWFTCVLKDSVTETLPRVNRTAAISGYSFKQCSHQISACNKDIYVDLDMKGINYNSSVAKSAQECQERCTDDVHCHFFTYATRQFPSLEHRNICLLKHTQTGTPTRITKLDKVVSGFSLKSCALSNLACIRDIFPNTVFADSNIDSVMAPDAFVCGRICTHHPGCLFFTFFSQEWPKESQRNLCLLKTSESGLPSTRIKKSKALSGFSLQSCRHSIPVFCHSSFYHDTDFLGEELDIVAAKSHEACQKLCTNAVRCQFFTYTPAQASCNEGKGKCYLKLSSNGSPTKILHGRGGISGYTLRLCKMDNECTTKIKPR
Sequence of Human Factor XIIa (P00748 373-615): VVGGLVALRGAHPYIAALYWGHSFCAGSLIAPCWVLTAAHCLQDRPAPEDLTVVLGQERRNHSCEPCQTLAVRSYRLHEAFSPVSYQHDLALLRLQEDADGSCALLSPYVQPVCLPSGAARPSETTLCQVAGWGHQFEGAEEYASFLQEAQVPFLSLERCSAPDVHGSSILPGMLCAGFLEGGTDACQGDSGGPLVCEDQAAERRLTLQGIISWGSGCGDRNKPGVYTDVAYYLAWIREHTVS

In the case of `COCc1nn(Cc2cnc(N3CCCC3)nc2)cc1C(=O)NCc1cc(OC)ccc1-n1cnnn1` [Example 80, N-{[5-methoxy-2-(1,2,3,4-tetrazol-1-yl)phenyl]methyl}-3-(methoxymethyl)-1-{[2-(pyrrolidin-1-yl)pyrimidin-5-yl]methyl}pyrazole-4-carboxamide], the IC50 (commonly the point on the concentration scale where inhibition reaches its midpoint) was 10.6 nM at Human plasma kallikrein [1], greater than 4000 nM on Human KLK1, 779 nM at Human FXIa and greater than 4000 nM at Human Factor XIIa. Moreover, in [2], the “Predicted in vivo human Clp (% LBF)” value was 4 % LBF. The microsomal CLint at 5 μM in data set [3] worked out at 54 µL/min/mg; in [7], 14 µL/min/mg. The free fraction (fraction unbound) (in general, the share of the substance not bound to proteins or other matrix) at 5 h, 5 μM in data set [4] is 0.08; in [6], 0.04. Besides, the Ki (commonly the dissociation constant of the complex between target and ligand, obtained from inhibition or displacement) at Human plasma kallikrein [5] (human plasma kallikrein, mixed-model inhibition equation) turned out to be 2.4 nM. Further, the Alpha on Human plasma kallikrein [5] (parameter of the mixed-model equation indicating mechanism of inhibition) stood at 14.8. In data set [8], the Papp (usually the rate of passage across a membrane or cell layer, normalised by area and donor concentration) at 1 h, 50 μM worked out at 23 ×10⁻⁶ cm/s. The “Predicted in vivo rat Clp (% LBF)” value in data set [9] is listed as 6 % LBF.
`COc1ccnc(CNC(=O)c2cn(Cc3ccc(Cn4ccccc4=O)cc3)nc2N)c1F` [Example 5, 3-amino-N-[(3-fluoro-4-methoxypyridin-2-yl)methyl]-1-({4-[(2-oxopyridin-1-yl)methyl]phenyl}methyl)pyrazole-4-carboxamide]: the IC50 on Human plasma kallikrein [1] is 2 nM; against Human KLK1, greater than 40000 nM; against Human FXIa, greater than 40000 nM; at Human Factor XIIa it was greater than 40000 nM. For the same compound, the “Predicted in vivo human Clp (% LBF)” value in [2] is 3 % LBF. In addition, the microsomal CLint at 5 μM in data set [3] was determined as 6 µL/min/mg; in [7] it was 3 µL/min/mg. For the same compound, the fraction unbound at 5 h, 5 μM was 0.23 in data set [4] and 0.36 in [6]. Moreover, in data set [8], the Papp at 1 h, 50 μM was 2 ×10⁻⁶ cm/s. Also, in data set [9], the “Predicted in vivo rat Clp (% LBF)” value was 5 % LBF.
On to `O=C(NCc1c(F)cccc1-n1cnnn1)c1cn(Cc2ccc(Cn3ccccc3=O)cc2)nc1C(F)(F)F` [Example 64, N-{[2-fluoro-6-(1,2,3,4-tetrazol-1-yl)phenyl]methyl}-1-({4-[(2-oxopyridin-1-yl)methyl]phenyl}methyl)-3-(trifluoromethyl)pyrazole-4-carboxamide], for which the IC50 at Human plasma kallikrein [1] was 0.6 nM; at Human KLK1, greater than 4000 nM; on Human FXIa, greater than 40000 nM; at Human Factor XIIa, greater than 4000 nM. In addition, the “Predicted in vivo human Clp (% LBF)” value in data set [2] was 19 % LBF. Besides, the microsomal CLint at 5 μM in data set [3] amounted to 94 µL/min/mg; in data set [7], 35 µL/min/mg. Besides, the values for the fraction unbound at 5 h, 5 μM in data set [4] and in data set [6] were 0.08 and 0.09, respectively. This compound also displayed a Papp at 1 h, 50 μM in data set [8] of 6 ×10⁻⁶ cm/s. Moreover, the “Predicted in vivo rat Clp (% LBF)” value in [9] is 33 % LBF.
Regarding `COCc1nn(Cc2ccc(Cn3cc(C)cn3)cc2)cc1C(=O)NCc1cc(OC)ccc1-n1cnnn1` [Example 61, N-{[5-methoxy-2-(1,2,3,4-tetrazol-1-yl)phenyl]methyl}-3-(methoxymethyl)-1-({4-[(4-methylpyrazol-1-yl)methyl]phenyl}methyl)pyrazole-4-carboxamide], the IC50 at Human plasma kallikrein [1] was 1.7 nM; against Human KLK1, greater than 4000 nM; on Human FXIa, greater than 40000 nM; at Human Factor XIIa, greater than 4000 nM. Moreover, the “Predicted in vivo human Clp (% LBF)” value in data set [2] is listed as 4 % LBF. The microsomal CLint at 5 μM in data set [3] amounted to 132 µL/min/mg; in data set [7], 55 µL/min/mg. Moreover, the fraction unbound at 5 h, 5 μM in [4] was 0.08; in [6], 0.04. In [8], this compound yielded a Papp at 1 h, 50 μM of 22 ×10⁻⁶ cm/s. The “Predicted in vivo rat Clp (% LBF)” value in data set [9] is 15 % LBF.

(Values after patent US11180484B2, “Pyrazole derivatives as plasma kallikrein inhibitors” (KALVISTA PHARMACEUTICALS LIMITED, priority 2016, dated 2021).)
